What was measured:
[1] = tested on: Caco-2 cells; experiment: Morphological analysis by electron microscope; assay type: cell-based, human; conditions: Caco-2 single-layer film in Transwell, final concentration 100 μm, apical side, 3 days
Excerpt: M cells generally have the morphological characteristics that microvilli on the apical side are shorter than those of epithelial cells in the vicinity thereof.

[2] = tested on: anti-Fetuin, anti-poliovirus and anti-influenza virus IgA antibody titer in the feces; design: species or system cynomolgus monkeys (Macaca fascicularis); conditions: cynomolgus monkey, in vivo
[3] = tested on: Caco-2 cells; experiment: M-cell differentiation induction test, in vitro (FACS analysis of GP2 expression); conditions: for effect on expression of GP2 (in words): Caco-2 cells, 100 μM, 3 days, FACS; for fold induction at 100 µM: Homo sapiens, Caco-2, 72 h, read-out: GP2 Expression Level (relative value when DMSO = 1)

Structure (SMILES)	cell morphology (microvilli) by electron microscope [1]	anti-Fetuin IgA antibody titer in the feces [2]	anti-influenza virus IgA antibody titer in the feces [2]	anti-poliovirus IgA antibody titer in the feces [2]	effect on expression of GP2 (in words) [3]	fold induction at 100 µM [3]
O=C(O)CCCCCCCCCO [10-Hydroxydecanoic Acid, 10-hydroxydecanoic acid]	cells with short microvilli were observed	increases	increases	increases	induced the expression of GP2	2.63
C[C@@H](O)CCCCC/C=C/C(=O)O [Formula (4), (2E,9R)-9-hydroxy-2-decenoic acid]	–	–	–	–	induced the expression of GP2	1.72
COC(=O)/C=C/CCCCC[C@@H](O)CO [Formula (5), (2E,9R)-methyl-9,10-dihydroxy-2-decenoate]	–	–	–	–	intensely induced the expression of GP2	2.46
O=C(O)/C=C/CCCCCCC[C@@H](O)CO [Formula (6), (2E,11R)-11,12-dihydroxy-2-dodecenoic acid]	–	–	–	–	intensely induced the expression of GP2	4.03
O=C(O)CC(O)CCCCCCCO (stereo not shown) [Formula (7), (2E)-3,10-dihydroxy-decanoic acid]	–	–	–	–	induced the expression of GP2	1.48
O=C(O)CCCCCCCCC(=O)O [Formula (8), sebacic acid]	–	–	–	–	induced the expression of GP2	1.45
O=C(O)/C=C/CCC[C@@H](O)CO [Formula (9), (2E,7R)-7,8-dihydroxy-2-octenoic acid]	–	–	–	–	suppressed the expression of GP2	0.75
O=C(O)/C=C\CCCCC[C@@H](O)CO [Formula (10), (2Z,9R)-9,10-dihydroxy-2-decenoic acid]	–	–	–	–	suppressed the expression of GP2	0.83
CC(=O)OCCCC/C=C/C(=O)O [Formula (11), (2E)-7-acetoxy-2-heptenoic acid]	–	–	–	–	intensely suppressed the expression of GP2	0.16
CC(=O)OC[C@@H](CCCCC/C=C/C(=O)O)OC(C)=O [Formula (12), (2E,9R)-9,10-diacetoxy-2-decenoic acid]	–	–	–	–	intensely suppressed the expression of GP2	0.48
O=C(O)/C=C/CCCCC[C@H](O)CO [Formula (13), (2E,9S)-9,10-dihydroxy-2-decenoic acid]	–	–	–	–	intensely suppressed the expression of GP2	0.39
CCCCCC(O)C(O)/C=C/C(O)CCCCCCCC(=O)O [Formula (14), 9(S),12(S),13(S)-trihydroxy-10(E)-octadecenoic acid]	–	–	–	–	suppressed the expression of GP2	0.74

From patent US11089805B2, “Mucosal immunomodulator” (Yamada Bee Company, Inc., priority 2016, dated 2021)
